Data on one compound can be found in patent US12396977B2, “Composition for treating degenerative brain diseases, containing 2-pentylfuran as active ingredient” (DAEGU GYEONGBUK INSTITUTE OF SCIENCE AND TECHNOLOGY, priority 2019, dated 2025).

The subject of one test is Olfr110. The test can be described thus: Odorant receptor / Olfr110 expression in microglia (qRT-PCR, immunostaining). The format is cell-based, mouse. The following applies: vs control. An excerpt:
For the measurement of mRNA, RNA was isolated from red blood cells, microglia, astrocytes, Hana3A cells, or cerebral cortical cells using the MagNa Lyser (Roche Molecular Diagnostics) using TRIzol reagent (Invitrogen, Carlsbad, CA.) according to the manufacturer's protocol. Then, cDNA was generated through reverse transcription using the isolated mRNA (using PrimeScript™ 1st str and cDNA Synthesis kit—#6110; Takara Bio Inc). This process was quantitatively measured in real time through quantitative real-time-PCR (using LightCycler® 480 SYBR Green I Master). The measured values were calculated using the 2-ΔΔCt method.
Thereafter, the cells were washed with PBS and fixed in 4% paraformaldehyde (#6148; Sigma Aldrich) for 5 minutes. Subsequently, the cells were cultured in PBS containing 4% normal horse serum (#008-000-121; Jackson ImmunoResearch) and 0.1% TWEEN® 20 (#P9416; Sigma-Aldrich) at room temperature for 1 hour. Then, the cells were […] at 4° C. overnight with the primary antibodies listed below. The antibodies are as follows: Olfr110 (rabbit-anti-Olfr110; 1:10,000; #ab177327; Abcam), Iba-1 (goat-anti-Iba-1; 1:1,000; #ab5076; Abcam), and GFAP (mouse-anti-GFAP; 1:1,000; #556330; BD Biosciences). Samples were cultured with secondary antibodies in PBS including 0.1% TWEEN® 20 (#P9416; Sigma-Aldrich) at room temperature for 1 hour. […]

Test [1] concerns Hana3A cells expressing Olfr110. Kind of test: Boyden chamber chemotaxis, Hana3A cells expressing Olfr110. The test is classed as cell-based. The conditions noted are these: 2-PF 10, 100, 1000 uM. The method, then:
Cell chemotaxis was measured using a multiwell Boyden chamber. More specifically, a polycarbonate filter (8 μm pore; #101-8; Neuroprobe) was coated with […] fibronectin in PBS (Sigma-Aldrich) for 2 hours, and the coated filter was placed in a Boyden chamber. In addition, the bottom side of the plate was filled with serum-free DMEM containing 2-pentylfuran or a culture supernatant. Next, microglia or Hana3A cells were transfected with an odorant receptor structure and then suspended in serum-free DMEM. Subsequently, microglia and Hana3A cells were allowed to stand at 37° C. for 4 hours and 8 hours, respectively. Cells sinking to the bottom were fixed with 4% PFA, and stained with hematoxylin for 10 minutes. Fixed cells were counted under an optical microscope in 5 randomly selected fixed […] fields (200×) using a scored eyepiece. The chemical chemotaxis index was defined as the number of migrating cells using an untreated group as a standard.

Another test relates to primary microglia. The test can be described thus: Active oxygen (ROS) production in primary microglia. The format is cell-based, mouse. The method, then:
Superoxide concentrations were calculated by measuring the degree of decrease in cytochrome c using a VersaMax microplate reader (Babior et al., 1973). Microglia were cultured on a 96-well plate at a concentration of 1.0×10^5 cells/well, and the microglia were activated by a 10 μM ATP solution containing 2-pentylfuran and cytochrome c, or a solution of Sup mixed with cytochalasin B (5 μM; #C66762; Sigma Aldrich). The resulting ROS concentration was measured by changes in light absorption at 550 nm at intervals of 1 minute for 25 minutes.
Active oxygen levels were measured using 2′,7′-dichlorodihydrofluorescein diacetate (DCF-DA, #D6883; Sigma Aldrich) using a method that had undergone minor modifications from the existing method. (Bae et al., 2001). More specifically, the primary microglia were treated with 10 μM DCF-DA in a 24-well plate (5.0×10^5 cells/well) […] at a temperature of 37° C. for 30 minutes. One plate was treated with 2-PF and one was not. Cells in each well were measured by a flow cytometer (FACS Accuri™ C6; BD Biosciences). MFI was measured in the same manner as described above.

Regarding `CCCCCc1ccco1` [2-PF, 2-pentylfuran], in the test on Olfr110, the “Olfr110 protein level (immunostaining)” value was “significantly increases”. Moreover, in test [1], the “mobility (chemotaxis) of Olfr110-expressing Hana3A cells” value is “increased in mobility in a concentration-dependent manner”. For the same compound, the “production of active oxygen on top of Sup MOI 5” value in the test on primary microglia (500 μM 2-PF) is listed as “further increased”. In addition, the “active oxygen secretion of microglia” value in the test on primary microglia (100, 300, and 500 μM) is reported as “significantly increased in a concentration-dependent manner”.
